Reference: patent US20220205049A1, “METHODS OF DETECTING AND PREDICTING BREAST CANCER” (priority 2019, published 2022)

Tested on: breast tissue
Assay: Mifepristone trial: breast tissue biopsies before and after treatment, DNA methylation (EPIC array), EpiDISH cell type composition and WID-BC-index
Type: in vivo, human
From the text: The second set of samples were obtained from the clinical trial “The Effect of a Progesterone Receptor Modulator on Breast Tissue in Women With BRCA-1 and -2 Mutations—a Placebo Controlled RCT” (ClinicalTrials.gov Identifier: NCT01898312; regional ethical review board at Karolinska Institutet permit 2009/144-31/4). Study subjects were healthy premenopausal women aged 18-43 years with regular menstrual cycles lasting 25-35 days and with no contraindications to mifepristone. The main exclusion criteria were: use of any hormonal or intrauterine contraception and pregnancy or breastfeeding 2 months prior to the study; a history of breast cancer or other malignancies and adnexal abnormality upon transvaginal ultrasound examination. All women were instructed to use barrier contraceptive methods throughout the duration of the study.
After signing an informed consent, study subjects were randomised into two groups. One group (i.e. 11 BRCA carriers and 9 controls) was treated with 50 mg mifepristone (one quarter of 200 mg Mifegyne®, Exelgyn, Paris, France) every other day for two months (56 days) starting on the first day of the menstrual cycle. […]
We analysed breast tissue samples from 21 BRCA carriers and 23 healthy controls before and after treatment with either mifepristone or placebo for two months. […]

CC#C[C@]1(O)CC[C@H]2[C@@H]3CCC4=CC(=O)CCC4=C3[C@@H](c3ccc(N(C)C)cc3)C[C@@]21C [mifepristone]
women with downward trend in the WID-BC-index after treatment (breast tissue, after adjustment for fat content, before vs after two months treatment, did not reach statistical significance): 80% | epithelial cell proportion in breast tissue samples after treatment (matched BRCA carrier and control groups, before vs after 50 mg every other day for two months, not seen in the placebo group): statistically significant decrease
